Converted amounts (≈) assume the structure as drawn.
How the values were obtained:
Enterococcus faecium [1] = experiment: Antibacterial activity against multi drug resistant Enterococcus faecium NCTC 7171 incubated for 24 hrs by broth dilution method; type: functional; details: NCTC 7171, 24 h
Staphylococcus aureus [2] = experiment: Antibacterial activity against resistant Staphylococcus aureus UCN14 incubated for 18 hrs by broth dilution method; type: functional; details: UCN14, 18 h
Enterococcus faecium [3] = experiment: Potency index, ratio of solithromycin MIC to compound MIC for multi drug resistant Enterococcus faecium NCTC 7171; type: functional
Escherichia coli [4] = experiment: Antibacterial activity against resistant Escherichia coli DK2058G incubated for 20 hrs by broth dilution method; type: functional
Staphylococcus aureus [5] = experiment: Antibacterial activity against resistant Staphylococcus aureus UCN17 incubated for 18 hrs by broth dilution method; type: functional; details: UCN17, 18 h
Escherichia coli [6] = experiment: Antibacterial activity against resistant Escherichia coli DK incubated for 20 hrs by broth dilution method; type: functional
Acinetobacter baumannii [7] = experiment: Antibacterial activity against multi drug resistant Acinetobacter baumannii ATCC 19606 incubated for 24 hrs by broth dilution method; type: functional; details: ATCC 19606 = CIP 70.34 = JCM 6841, 24 h
Escherichia coli [8] = experiment: Antibacterial activity against resistant Escherichia coli DK3535 incubated for 20 hrs by broth dilution method; type: functional; details: DK3535, 20 h
Staphylococcus aureus [9] = experiment: Antibacterial activity against wild type Staphylococcus aureus ATCC 29213 incubated for 18 hrs by broth dilution method; type: functional; details: ATCC 29213, 18 h
Staphylococcus aureus [10] = experiment: Antibacterial activity against resistant Staphylococcus aureus UCN18 incubated for 18 hrs by broth dilution method; type: functional; details: UCN18, 18 h
Escherichia coli [11] = experiment: Antibacterial activity against resistant Escherichia coli SQ171 incubated for 20 hrs by broth dilution method; type: functional; details: SQ171, 20 h
Escherichia coli [12] = experiment: Antibacterial activity against resistant Escherichia coli SQ1712058G incubated for 20 hrs by broth dilution method; type: functional
Escherichia coli [13] = experiment: Potency index, ratio of solithromycin MIC to compound MIC for resistant Escherichia coli SQ171; type: functional
Escherichia coli [14] = experiment: Potency index, ratio of solithromycin MIC to compound MIC for resistant Escherichia coli SQ1712058G; type: functional
[15] = Cytotoxicity against African green monkey Vero cells assessed as reduction in cell viability after 72 hrs by MTS/PMS assay; type: cell-based; details: chlorocebus sabaeus
[16] = Selectivity index, ratio of CC50 for African green monkey Vero cells to MIC for multi drug resistant Enterococcus faecium NCTC 7171; type: toxicity; details: read-out: Selectivity Index
Acinetobacter baumannii [17] = experiment: Potency index, ratio of solithromycin MIC to compound MIC for multidrug-resistant Acinetobacter baumannii ATCC 19606; type: functional, ATCC 19606 = CIP 70.34 = JCM 6841
Escherichia coli [18] = experiment: Potency index, ratio of solithromycin MIC to compound MIC for resistant Escherichia coli DK; type: functional
Escherichia coli [19] = experiment: Potency index, ratio of solithromycin MIC to compound MIC for resistant Escherichia coli DK3535; type: functional
Staphylococcus aureus [20] = experiment: Potency index, ratio of solithromycin MIC to compound MIC for wild type Staphylococcus aureus ATCC 29213; type: functional

Compound	MIC (Enterococcus faecium [1]) [ng/mL]	MIC (Staphylococcus aureus [2]) [µg/mL]	Ratio (Enterococcus faecium [3])	MIC (Escherichia coli [4]) [µg/mL]	MIC (Staphylococcus aureus [5]) [µg/mL]	MIC (Escherichia coli [6]) [µg/mL]	MIC (Acinetobacter baumannii [7]) [µg/mL]	MIC (Escherichia coli [8]) [µg/mL]	MIC (Staphylococcus aureus [9]) [µg/mL]	MIC (Staphylococcus aureus [10]) [µg/mL]	MIC (Escherichia coli [11]) [µg/mL]	MIC (Escherichia coli [12]) [µg/mL]	Ratio (Escherichia coli [13])	Ratio (Escherichia coli [14])	CC50 at 72 h [15] [µg/mL]	selectivity ratio [16]	Ratio (Acinetobacter baumannii [17])	Ratio (Escherichia coli [18])	Ratio (Escherichia coli [19])	Ratio (Staphylococcus aureus [20])
CC[C@H]1OC(=O)[C@@](C)(F)C(=O)[C@H](C)[C@@H](O[C@@H]2O[C@H](C)C[C@H](N(C)C)[C@H]2O)[C@](C)(OC)C[C@@H](C)C(=O)[C@H](C)[C@H]2N(CCCCn3cc(COc4ccccc4)nn3)C(=O)O[C@]12C	12 (≈ 0.014 µM)	64 (≈ 74.4 µM)	2	4 (≈ 4.65 µM)	8 (≈ 9.3 µM)	2 (≈ 2.33 µM)	25 (≈ 29.1 µM)	4 (≈ 4.65 µM)	≤ 0.0625	4 (≈ 4.65 µM)	> 32	> 32								
CC[C@H]1OC(=O)[C@@](C)(F)C(=O)[C@H](C)[C@@H](O[C@@H]2O[C@H](C)C[C@H](N(C)C)[C@H]2O)[C@](C)(OC)C[C@@H](C)C(=O)[C@H](C)[C@H]2N(CCCCn3cc(-c4ccc(OC)cc4)nn3)C(=O)O[C@]12C	1.5 (≈ 0.00174 µM)	> 128	16	2 (≈ 2.33 µM)	32 (≈ 37.2 µM)	2 (≈ 2.33 µM)	25 (≈ 29.1 µM)	2 (≈ 2.33 µM)	≤ 0.0625	32 (≈ 37.2 µM)	64 (≈ 74.4 µM)	> 64								
CC[C@H]1OC(=O)[C@@](C)(F)C(=O)[C@H](C)[C@@H](O[C@@H]2O[C@H](C)C[C@H](N(C)C)[C@H]2O)[C@](C)(OC)C[C@@H](C)C(=O)[C@H](C)[C@H]2N(CCCCn3cc(-c4cc(OC)cc([N+](=O)[O-])c4)nn3)C(=O)O[C@]12C	1.5 (≈ 0.00166 µM)	64 (≈ 70.7 µM)	16	2 (≈ 2.21 µM)	32 (≈ 35.4 µM)	4 (≈ 4.42 µM)	50 (≈ 55.2 µM)	2 (≈ 2.21 µM)	≤ 0.0625	32 (≈ 35.4 µM)	16 (≈ 17.7 µM)	8 (≈ 8.84 µM)	2	4						
CC[C@H]1OC(=O)[C@@](C)(F)C(=O)[C@H](C)[C@@H](O[C@@H]2O[C@H](C)C[C@H](N(C)C)[C@H]2O)[C@](C)(OC)C[C@@H](C)C(=O)[C@H](C)[C@H]2N(CCCCn3cc(-c4ccsc4)nn3)C(=O)O[C@]12C	0.094 (≈ 0.000112 µM)	128 (≈ 153 µM)	256	4 (≈ 4.78 µM)	128 (≈ 153 µM)	4 (≈ 4.78 µM)	12 (≈ 14.4 µM)	4 (≈ 4.78 µM)	0.25 (≈ 0.299 µM)	128 (≈ 153 µM)	8 (≈ 9.57 µM)	> 64			25 (≈ 29.9 µM)	270000	2			
CC[C@H]1OC(=O)[C@@](C)(F)C(=O)[C@H](C)[C@@H](O[C@@H]2O[C@H](C)C[C@H](N(C)C)[C@H]2O)[C@](C)(OC)C[C@@H](C)C(=O)[C@H](C)[C@H]2N(CCCCn3cc(-c4cnc(N)s4)nn3)C(=O)O[C@]12C	24 (≈ 0.0282 µM)	64 (≈ 75.1 µM)		1 (≈ 1.17 µM)	64 (≈ 75.1 µM)	2 (≈ 2.35 µM)	> 50	1 (≈ 1.17 µM)	0.25 (≈ 0.293 µM)	64 (≈ 75.1 µM)	> 32	> 32								
CC[C@H]1OC(=O)[C@@](C)(F)C(=O)[C@H](C)[C@@H](O[C@@H]2O[C@H](C)C[C@H](N(C)C)[C@H]2O)[C@](C)(OC)C[C@@H](C)C(=O)[C@H](C)[C@H]2N(CCCCn3cc(-c4cc(O)cc([N+](=O)[O-])c4)nn3)C(=O)O[C@]12C	0.0059 (≈ 6.62e-06 µM)	16 (≈ 18 µM)	4096	4 (≈ 4.49 µM)	4 (≈ 4.49 µM)	0.5 (≈ 0.561 µM)	25 (≈ 28.1 µM)	8 (≈ 8.98 µM)	≤ 0.0625	8 (≈ 8.98 µM)	32 (≈ 35.9 µM)	> 32			12 (≈ 13.5 µM)	2e+06		4		
CC[C@H]1OC(=O)[C@@](C)(F)C(=O)[C@H](C)[C@@H](O[C@@H]2O[C@H](C)C[C@H](N(C)C)[C@H]2O)[C@](C)(OC)C[C@@H](C)C(=O)[C@H](C)[C@H]2N(CCCCn3cc(-c4ccc(N)cc4)nn3)C(=O)O[C@]12C	24 (≈ 0.0284 µM)	16 (≈ 18.9 µM)		4 (≈ 4.73 µM)	8 (≈ 9.47 µM)	1 (≈ 1.18 µM)	25 (≈ 29.6 µM)	1 (≈ 1.18 µM)	≤ 0.031	16 (≈ 18.9 µM)	16 (≈ 18.9 µM)	> 32	2					2	2	
CC[C@H]1OC(=O)[C@@](C)(F)C(=O)[C@H](C)[C@@H](O[C@@H]2O[C@H](C)C[C@H](N(C)C)[C@H]2O)[C@](C)(OC)C[C@@H](C)C(=O)[C@H](C)[C@H]2N(CCCCn3cc(-c4cccs4)nn3)C(=O)O[C@]12C	49 (≈ 0.0586 µM)	32 (≈ 38.3 µM)		1 (≈ 1.2 µM)	8 (≈ 9.57 µM)	2 (≈ 2.39 µM)	6.5 (≈ 7.77 µM)	1 (≈ 1.2 µM)	≤ 0.0625	8 (≈ 9.57 µM)	32 (≈ 38.3 µM)	> 64					4			
CC[C@H]1OC(=O)[C@@](C)(F)C(=O)[C@H](C)[C@@H](O[C@@H]2O[C@H](C)C[C@H](N(C)C)[C@H]2O)[C@](C)(OC)C[C@@H](C)C(=O)[C@H](C)[C@H]2N(CCCCn3cc(-c4cccc(NC(C)=O)c4)nn3)C(=O)O[C@]12C	24 (≈ 0.0271 µM)	> 128		8 (≈ 9.02 µM)	64 (≈ 72.1 µM)	4 (≈ 4.51 µM)	50 (≈ 56.4 µM)	4 (≈ 4.51 µM)	0.016 (≈ 0.018 µM)	64 (≈ 72.1 µM)	64 (≈ 72.1 µM)	> 64								4 - 8
CC[C@H]1OC(=O)[C@H](C)[C@@H](O[C@H]2C[C@@](C)(OC)[C@@H](O)[C@H](C)O2)[C@H](C)[C@@H](O[C@@H]2O[C@H](C)C[C@H](N(C)C)[C@H]2O)[C@](C)(O)C[C@@H](C)CN(C)[C@H](C)[C@@H](O)[C@]1(C)O [AZITHROMYCIN]	25000 (≈ 33.4 µM)																			
CC[C@H]1OC(=O)[C@H](C)[C@@H](O[C@H]2C[C@@](C)(OC)[C@@H](O)[C@H](C)O2)[C@H](C)[C@@H](O[C@@H]2O[C@H](C)C[C@H](N(C)C)[C@H]2O)[C@](C)(O)C[C@@H](C)C(=O)[C@H](C)[C@@H](O)[C@]1(C)O [ERYTHROMYCIN]	12000 (≈ 16.4 µM)																			
CC[C@H]1OC(=O)[C@@](C)(F)C(=O)[C@H](C)[C@@H](O[C@@H]2O[C@H](C)C[C@H](N(C)C)[C@H]2O)[C@](C)(OC)C[C@@H](C)C(=O)[C@H](C)[C@H]2N(CCCCn3cc(-c4cccc(N)c4)nn3)C(=O)O[C@]12C [SOLITHROMYCIN]	24 (≈ 0.0284 µM)	8 (≈ 9.47 µM)		4 (≈ 4.73 µM)	4 (≈ 4.73 µM)	2 (≈ 2.37 µM)	25 (≈ 29.6 µM)	2 (≈ 2.37 µM)	0.06 to 0.12 (≈ 0.071 to 0.142 µM)	4 (≈ 4.73 µM)	> 32	> 32								
